Experimental data from patent US9579406B2, “Phospholipid ether analogs as agents for detecting and locating cancer, and methods thereof” (Cellectar, Inc., priority 2004, dated 2017).

Assays:
[1] = system: mammary and intestinal tumors; assay: Apparent therapeutic responses in Apc Min/+ mammary and intestinal tumor mice; assay type: in vivo, Apc^Min/+ mouse
Excerpt: During the course of mouse tumor uptake and retention studies with “imaging” doses (15-20 μCi/20 g mouse) of ^125I-labeled NM404, several apparent therapeutic responses have been observed (unpublished results). […] Some of these animals also lost all hair above larger mammary tumors at around 8 days after injection. Moreover, these mice also get intestinal tumors and usually suffer from intestinal bleeding resulting in severe anemia, which renders their feet white. Dr. Moser noted that the feet of these mice had reverted to a pink color around 5 days after a single injection of NM404. […] Another compelling example of tumor regression is illustrated in FIG. 6. Two litter mates each received SCC1 and SCC6 xenografts in their left and right flanks, respectively. One mouse received a single injection of ^125I-NM404 (20 μCi). […] These coincidental findings were reconfirmed in two separate age-matched groups each involving more than 6 mice. Although these observations with ^125I-NM404 are anecdotal at this point, they do seem to strongly indicate potential for radiotherapy applications particularly if labeled with iodine-131. Ongoing quantitative tumor uptake and retention studies in several animal tumor models will also provide sufficient data to initiate a comprehensive dosimetry analysis for this agent in order to estimate its true radiotherapeutic potential.

[2] = system: human PC-3 tumor cells in tibia; assay: Intratibial PC-3 bone tumor model, radioactivity scan fused with microCT; assay type: in vivo, NUDE mice; conditions: 4 days following injection
Method: Following in vivo imaging of anesthetized mice, the prostate tumors were removed immediately, and imaged ex vivo on the same scanner (equipped with high resolution 1 mm collimator and 2-D acquisition and analysis software) in order to avoid tissue attenuation associated with the low energy of iodine-125 (FIG. 21). […] In an attempt to simulate bone metastases another experiment was performed wherein human PC-3 tumor cells were implanted into the tibia of immune compromised NUDE mice (n=6) according to a recent reports. Following tumor cell inoculation, mice were scanned serially by high-resolution microCT in order to monitor bone tumor development (FIG. 22). Once bone deterioration was detected, iodine-125 labeled NM404 was administered intravenously via tail vein. Mice were scanned for radioactivity and by microCT 4 days post NM404 administration. Radioactivity scans were fused with microCT scans (FIG. 23) to corroborate NM404 radioactivity and tumor location.

LuCaP prostate = assay: Tumor models examined with NM404 (Table 2); assay type: in vivo, Mouse xenograft; conditions: Adenocarcinoma
Excerpt: (§1) NM404 has now been evaluated in 27 animal tumor models, including several lung, and it is clear that once the agent enters tumor cells, it reaches a metabolic dead end and becomes trapped. […] NM404 is also retained in spontaneous murine lung tumors (FIG. 13). Using ^125I-labeled NM404, the inventors have been able to image mammary and prostate tumors in mice in excess of 60 days. […] Imaging and tissue distribution studies performed in mouse models aimed at determining the uptake characteristics in a wide variety of tumor models are summarized in Table 2.
(§2) Although tumor retention can be explained by a lack of metabolic phospholipase enzymes in the tumor cell membranes, the exact mechanism of tumor cell uptake is unknown. […] The inventors are currently evaluating the selectivity of NM404 in a unique mouse tumor model developed at Wisconsin, wherein both preneoplastic hyperplasias and malignant adenocarcinomas form spontaneously in the mammary gland. […] If this initial observation is validated, then via genomic and or proteomic analysis the inventors may be able to identify a key genetic difference between malignant tumors and their non malignant predecessor cells. This could identify a completely new molecular therapeutic target that may be universal for all types of cancer.

Melanoma B16 = assay: Tumor models examined with NM404 (Table 2); assay type: in vivo, Mouse xenograft; conditions: Adenocarcinoma
Excerpt: as §1, §2

Liver CT-26 = assay: Tumor models examined with NM404 (Table 2); assay type: in vivo, Mouse xenograft; conditions: Colorectal adenocarcinoma
Excerpt: as §1, §2

[3] = system: Walker-256 carcinosarcoma; assay: Tissue distribution of radioactivity in rats bearing Walker-256 carcinosarcoma; assay type: in vivo, rat
Lung A-549 (NSCC) = assay: Tumor models examined with NM404 (Table 2); assay type: in vivo, SCID Mouse; conditions: Adenocarcinoma
Excerpt: as §1, §2

Prostate PC-3 = assay: Tumor models examined with NM404 (Table 2); assay type: in vivo, SCID Mouse; conditions: Adenocarcinoma
Excerpt: as §1, §2

Adrenal RL-251 = assay: Tumor models examined with NM404 (Table 2); assay type: in vivo, SCID Mouse; conditions: Adenocarcinoma
Excerpt: as §1, §2

Adrenal H-295 = assay: Tumor models examined with NM404 (Table 2); assay type: in vivo, SCID Mouse; conditions: Adenocarcinoma
Excerpt: as §1, §2

[4] = MIRD extrapolation of rat tissue distribution data to permissible human dose; parameters: species or system human (from rat data)
Excerpt: Accordingly the inventors have conducted the preliminary pharmacokinetic studies in human lung cancer patients at 1 mCi. Similar extrapolative calculation of the dosimetry for ^124I-NM404 afforded a similar 2 mCi dose level again based on projected dosimetry to the adrenals and bladder wall. Preliminary human data (5 patients), however, indicate very little uptake and retention of the agent into any abdominal organ (including the bladder and adrenals) with the exception of the liver which returns to background levels within 11 days.
Dosing of radioiodinated ^124I NM404 will be based on MIRD extrapolation of the iodine-131 dosimetry data derived from this ongoing study. The ^131I-NM404 dose is currently calculated as follows: Animal biodistribution data is used to determine the percentage of injected dose/organ at varying time points. These animal data are extrapolated to man by means of MIRD formalism (MIRDOSE PC v3.1) using standard conversion factors for differences in organ mass and anatomy between rat and standard man, providing predicted human organ doses; Based on these predicted doses, the permissible mCi dose to be injected into humans is determined using the maximal doses legally permitted by RDRC regulations for specific human tissue as defined in the Federal Register (21CFR Part 361.1) e.g. whole body, blood, blood forming tissues, eye lens, gonads—3 rem/dose; any other tissue—5 rem/dose. This approach was previously used to bring both NM324 and NM404 to clinical use, resulting in a calculated dose of 1 mCi.

MAT LyLu cells = assay: Gamma camera scintigraphy in rat Dunning R3327 (MAT LyLu) prostate cancer model
Excerpt: The MatLyLu (Dunning R3327 rat) model, a rat prostate tumor line, was used specifically to screen 9 specific analogs prior to entering them into control for dosimetry and tumor-bearing animals for determining tumor/background ratios.
In order to expedite the screening process and minimize the number of tumor bearing animals utilized in multiple time point tissue distribution studies, new radioiodinated homologs were imaged by gamma camera scintigraphy in the rat Dunning R3337 (MAT LyLu strain) prostate cancer model. […] Gamma camera images were obtained at multiple time points including 24 and 48 hours post injection.
The new PLE analogs were synthesized and radiolabeled with ^125I for initial image analysis in Copenhagen rats bearing Dunning R3327 prostate tumors.

Mammary Adenocarcinoma = assay: Tumor models examined with NM404 (Table 2); assay type: in vivo, Apc/^min+ mouse
Excerpt: as §1, §2

Mammary SCC = assay: Tumor models examined with NM404 (Table 2); assay type: in vivo, Apc/^min+ mouse; conditions: Squamous cell carcinoma
Excerpt: as §1, §2

SCC1 and 6 = assay: Tumor models examined with NM404 (Table 2); assay type: in vivo, Nude mouse xenograft; conditions: Squamous cell carcinoma
Excerpt: as §1, §2

Colon LS-180 = assay: Tumor models examined with NM404 (Table 2); assay type: in vivo, Nude Mouse; conditions: Adenocarcinoma
Excerpt: as §1, §2

Melanoma A-375 = assay: Tumor models examined with NM404 (Table 2); assay type: in vivo, Nude Mouse
Excerpt: as §1, §2

SMILES: C[N+](C)(C)CCOP(=O)([O-])OCCCCCCCCCCCCCCCCCCc1ccc([125I])cc1 [Compound I-125-NM404]
- survival versus untreated litter mates ([1]; after 21 days, both intestinal models): easily outlived their untreated litter mates
- intestinal tumors remaining at dissection ([1]; single injection): only a very few, if any
- mammary tumor growth ([1]; single iv injection, 15-20 μCi/20 g mouse): tumor growth remains static
- correlation of radioactivity with tibial tumor [2]: Focal NM404 activity correlates well with tibial PC3 tumor

SMILES: C[N+](C)(C)CCOP(=O)([O-])OCCCCCCCCCCCCCCCCCCc1ccc(I)cc1 [NM-404, 18-(4-iodophenyl)-octadecylphosphocholine]
- NM404 Tumor Localization (LuCaP prostate): Yes (Localization defined as >5% injected dose per gram tumor basis based on tissue distribution data)
- NM404 Tumor Localization (Melanoma B16): Yes (Localization defined as >5% injected dose per gram tumor basis based on tissue distribution data)
- NM404 Tumor Localization (Liver CT-26): Yes (Localization defined as >5% injected dose per gram tumor basis based on tissue distribution data)
- radioactivity in the tumor (peak) ([3]; 48 hours after administration): 1.14±0.01 % of ID/g
- blood levels ([3]; 120 hours): 0.6±0.1 % of ID/g
- time of peak tumor radioactivity ([3]; after administration): 48 h
- NM404 Tumor Localization (Lung A-549 (NSCC)): Yes (Localization defined as >5% injected dose per gram tumor basis based on tissue distribution data)
- NM404 Tumor Localization (Prostate PC-3): Yes (Localization defined as >5% injected dose per gram tumor basis based on tissue distribution data)
- NM404 Tumor Localization (Adrenal RL-251): Yes (Localization defined as >5% injected dose per gram tumor basis based on tissue distribution data)
- NM404 Tumor Localization (Adrenal H-295): Yes (Localization defined as >5% injected dose per gram tumor basis based on tissue distribution data)
- calculated dose for clinical use [4]: 1 mCi
- 5 rad dose to adrenals ([4]; new animal data): 2.2 mCi
- 5 rad testes dose ([4]; new animal data): 2.1 mCi
- liver activity and tumor retention in initial image screen (MAT LyLu cells; 125I-labeled): much lower liver activity than its predecessor NM324 but also maintained prolonged tumor retention
- tumor uptake and liver/abdominal radioactivity by gamma camera imaging (MAT LyLu cells; tumor-bearing rats, 24 and 48 hours post injection): readily visualized
- NM404 Tumor Localization (Mammary Adenocarcinoma): Yes (Localization defined as >5% injected dose per gram tumor basis based on tissue distribution data)
- NM404 Tumor Localization (Mammary SCC): Yes (Localization defined as >5% injected dose per gram tumor basis based on tissue distribution data)
- NM404 Tumor Localization (SCC1 and 6): Yes (Localization defined as >5% injected dose per gram tumor basis based on tissue distribution data)
- NM404 Tumor Localization (Colon LS-180): Yes (Localization defined as >5% injected dose per gram tumor basis based on tissue distribution data)
- NM404 Tumor Localization (Melanoma A-375): Yes (Localization defined as >5% injected dose per gram tumor basis based on tissue distribution data)
